Data on four compounds can be found in ChEMBL document CHEMBL4138317, “Deciphering the Inhibition of the Neuronal Calcium Sensor 1 and the Guanine Exchange Factor Ric8a with a Small Phenothiazine Molecule for the Rational Generation of Therapeutic Synapse Function Regulators” (J Med Chem, 2018).

Assay [1] deals with Neuronal calcium sensor 1/Synembryn-A (Homo sapiens) (UniProt P62166+Q9NPQ8). Description: Inhibition of human NCS1 and V5-tagged Ric8a interaction expressed in HEK293 cells at 20 uM after 24 hrs by Western blot analysis relative to control. The assay is classed as cell-based.
Chain of Neuronal calcium sensor 1/Synembryn-A (Homo sapiens) (P62166 whole entry, looked up): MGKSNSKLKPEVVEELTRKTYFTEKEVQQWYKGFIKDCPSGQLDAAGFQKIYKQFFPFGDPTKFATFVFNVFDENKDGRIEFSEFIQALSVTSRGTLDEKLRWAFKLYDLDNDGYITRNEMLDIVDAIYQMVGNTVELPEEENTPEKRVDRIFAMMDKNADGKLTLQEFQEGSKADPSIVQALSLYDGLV
Chain of Neuronal calcium sensor 1/Synembryn-A (Homo sapiens) (Q9NPQ8 whole entry, looked up): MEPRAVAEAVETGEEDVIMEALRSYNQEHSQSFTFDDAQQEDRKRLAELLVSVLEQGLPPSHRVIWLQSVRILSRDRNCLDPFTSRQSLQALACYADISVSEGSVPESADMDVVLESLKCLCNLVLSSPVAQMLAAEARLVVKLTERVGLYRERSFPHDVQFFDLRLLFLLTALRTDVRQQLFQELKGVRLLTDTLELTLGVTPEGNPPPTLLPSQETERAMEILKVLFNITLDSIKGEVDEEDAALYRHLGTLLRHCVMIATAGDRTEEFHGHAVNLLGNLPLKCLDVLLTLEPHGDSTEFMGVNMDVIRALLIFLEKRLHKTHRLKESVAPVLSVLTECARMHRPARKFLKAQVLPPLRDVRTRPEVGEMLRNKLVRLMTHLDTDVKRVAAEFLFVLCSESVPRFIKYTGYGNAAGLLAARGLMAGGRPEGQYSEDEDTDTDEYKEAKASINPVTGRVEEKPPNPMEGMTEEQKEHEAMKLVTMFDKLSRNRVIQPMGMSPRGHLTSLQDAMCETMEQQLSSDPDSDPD
In assay [2] the target is Neuronal calcium sensor 1 (Homo sapiens, UniProt P62166). Description: Binding affinity to human NCS1 expressed in Escherichia coli BL21 Star (DE3) by fluorescence emission assay. The conditions noted are these: read-out: Kd(app).
Chain of Neuronal calcium sensor 1 (P62166 2-190 limits assumed): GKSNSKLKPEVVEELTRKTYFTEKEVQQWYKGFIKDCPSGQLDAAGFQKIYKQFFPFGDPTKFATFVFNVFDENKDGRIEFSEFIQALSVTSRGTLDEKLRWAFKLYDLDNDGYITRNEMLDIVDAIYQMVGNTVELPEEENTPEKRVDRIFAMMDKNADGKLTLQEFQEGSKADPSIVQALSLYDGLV
The target in assay [3] is T1, Frequenin-2 (Drosophila melanogaster, UniProt Q9VWX8).
T1 sequence (Q9VWX8 whole entry): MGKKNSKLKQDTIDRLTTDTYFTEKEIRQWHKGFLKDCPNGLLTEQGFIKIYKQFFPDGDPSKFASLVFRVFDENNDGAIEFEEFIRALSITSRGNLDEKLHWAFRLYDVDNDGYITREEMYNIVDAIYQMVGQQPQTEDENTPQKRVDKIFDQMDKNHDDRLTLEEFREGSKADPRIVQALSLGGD
Description: Binding affinity to drosophila NCS1 expressed in Escherichia coli BL21 (DE3) by fluorescence emission assay. The settings on record: read-out: Kd(app).

The target of assay [4] is T2, Frequenin-2 (Drosophila melanogaster) (UniProt Q9VWX8).
T2 sequence (whole entry): T1 sequence (Q9VWX8 whole entry)
Briefly: Binding affinity to drosophila NCS1 expressed in Escherichia coli BL21 (DE3) by STD-NMR method.

Activity calls are given as the source filed them. The calls are words filed in the database; no cut-off is given here.

`Cc1sc(NC(=O)CNC(=O)c2ccc(F)cc2)nc1-c1ccccc1`: the inhibition in assay [1] was determined as 50%.
Regarding `COc1ccccc1C(=O)Nc1nc2cc(C(F)(F)F)ccc2s1`, the inhibition in assay [1] came out at 50%. In addition, the Kd in assay [2] was 11.5 µM.
Take `O=C(CN1CCCCC1)NN1c2ccccc2Sc2ccccc21`: the Kd in assay [3] was 71 µM. Besides, the result in assay [4] was Active.
Consider `O=C(CC(c1ccccc1)c1ccccc1)Nc1nc2ccccc2s1`, for which the Kd in assay [3] was determined as 1.13 µM; in assay [2] it was 1.25 µM. Moreover, the inhibition in assay [1] was 50%.
